The inhibition is the percentage by which the read-out fell short of the control.

Four compounds from PMC12251482, “Floridoside Phosphotriester Derivatives: Synthesis and Inhibition of Human Neutrophils’ Oxidative Burst” (Molecules, 2025) can be followed below.

Series [1] relates to PMA-stimulated human neutrophils. The series is described as follows: H2O2 generation by PMA-stimulated neutrophils, oxidation of Amplex Red. The format is cell-based. As to conditions: PMA 160 nM, mean ± SEM. As for the experimental part:
Amplex Red is a highly sensitive and chemically stable fluorescent probe for the extracellular detection of H2O2 [82]. The methodology used previously for monitoring the modulation of the oxidative burst was adapted. In a 96-well plate, neutrophils (2 × 10^6 cells/mL) were incubated in the dark at 37 °C for 5 min with Amplex Red (25 μM), horseradish peroxidase (0.25 U/mL), and the compounds under study (10–100 μM) or DMSO (4%). Quercetin (0.3–5.0 μM) and DPI (0.01–10 μM) were used as controls. After incubation, PMA (160 nM) was added, and the fluorescence (excitation at 530 nm and emission at 590 nm) was measured in a microplate reader (Synergy HT, BioTek Instruments, Inc., Winooski, VT, USA). Obtained values correspond to the slope measured between 5 and 10 min. Effects are expressed as the percentage inhibition of Amplex Red oxidation. The results obtained represent at least three independent experiments. […] 3.4.3 Oxidation of Amplex Red
Amplex Red is a highly sensitive and chemically stable ﬂuorescent probe for the extracellular detection of H2O2 [16]. The methodology used previously for monitoring the modulation of the oxidative burst was adapted.
In a 96-well plate, neutrophils (2 x 10^6 cells/mL) were incubated in the dark at 37 °C for 5 minutes with Amplex Red (25 µM), horseradish peroxidase (0.25 U/mL) , and the compounds under study (10 - 100 µM) or DMSO (4%). Quercetin (0.3 - 5.0 µM) and DPI (0.01 - 10 µM) were used as positive controls for inhibition. After incubation, PMA (160 nM) was added, and the ﬂuorescence (excitation at 530 nm and emission at 590 nm) was measured in a microplate reader (Synergy HT, BioTek Instruments, Inc., Winooski, VT, USA). Obtained values correspond to the slope measured between 5 and 10 minutes. Eﬀects are expressed as the percentage inhibition of Amplex Red oxidation. The obtained results represent at least three independent experiments.
GraphPad Prism 6 software was used to plot the inhibition percentage versus compound concentration curves, enabling the determination of the concentration required to achieve 50% inhibition (IC50). GraphPad Prism 6 software was also used to perform all statistical analyses.
[…] was estimated by applying the one-way analysis (ANOVA), followed by the Bonferroni’s multiple comparisons test. In all cases, p-values < 0.05 were considered statistically signiﬁcant. The results are expressed as mean ± standard error of the mean (SEM).

For the next series, the system named is human neutrophils. The series is described as follows: Neutrophils' apoptosis versus necrosis, Annexin V/PI flow cytometry. The format is cell-based. As to conditions: for Cytotoxicity in neutrophils: 45 min; for Induction of late apoptosis in neutrophils: Figure S154. As for the experimental part: The effect of the compounds under study on neutrophil viability was evaluated using flow cytometry. This assessment involved staining with Annexin V (AV) and propidium iodide (PI) from the BD Pharmingen™ FITC Annexin V Apoptosis Detection Kit, following the manufacturer’s protocol. […] Afterwards, the content of each well was transferred to a conical microtube and centrifuged at 400× g, at 20 °C, for 5 min. The neutrophils’ pellets were resuspended in PBS and centrifuged again under the previous conditions. The supernatant was removed, and the solution of Annexin V and PI from the kit was added, resuspending the pellet. The neutrophils were incubated in the dark at room temperature for 15 min and then diluted (dilution factor = 6) with the diluted binding buffer. […] In the flow cytometer, the fluorescence signal of at least 10,000 neutrophils per sample was collected in logarithmic mode and followed in channels 1 and 3. A polygon gate, corresponding to the neutrophil’s population, was drawn according to the light-scattering properties of neutrophils in a forward versus scatter plot. Thus, debris and other blood cells were unaccounted for in the samples. The green fluorescence corresponding to Annexin V was monitored in channel 1 and plotted as a histogram of FL1 staining, whereas the fluorescence corresponding to PI was monitored in channel 3 and plotted in the same histogram as FL3 staining. Neutrophils’ cell death was expressed as a relative percentage of viable, apoptotic, late apoptotic, and necrotic cells compared to a negative control (untreated cells).
The eﬀect of the compounds under study on neutrophil viability was evaluated using ﬂow cytometry.
This assessment involved staining with Annexin V (AV) and propidium iodide (PI) from the BD Pharmingen™ FITC Annexin V Apoptosis Detection Kit, following the manufacturer's protocol. Neutrophils (1 x10^6 cells/mL) were incubated in a 24-well plate in the dark at 37 °C for 45 minutes with the positive control (Triton X-100, […]
Afterwards, the content of each well was transferred to a conical microtube and centrifuged at 400g, at 20 °C, for 5 minutes. The neutrophils’ pellets were resuspended in PBS and centrifuged again under the previous conditions. The supernatant was removed, and the solution of Annexin V and PI from the kit was added, resuspending the pellet. The neutrophils were incubated in the dark at room temperature for 15 minutes and then diluted (dilution factor = 6) with the diluted binding buﬀer. The measurements were performed in a n Accuri C6 ﬂow cytometer (BD, Becton, Dickinson and Company, Franklin Lakes, NJ, USA), and the results were treated with BD Accuri™ C6 software. In the ﬂow cytometer, the ﬂuorescence signal of at least 10,000 neutrophils per sample was collected in logarithmic mode and followed in channels 1 and 3. A polygon gate, corresponding to the neutrophil’s population, was drawn according to the light-scattering properties of neutrophils in a forward vs scatter plot. Thus, debris and other blood cells were unaccounted for in the samples.
The green ﬂuorescence corresponding to Annexin V was monitored in channel 1 and plotted as a histogram of FL1 staining, whereas the ﬂuorescence corresponding to PI was monitored in channel 3 and plotted in the same histogram as FL3 staining. Neutrophils’ cell death was expressed as a relative percentage of viable, apoptotic, late apoptotic, and necrotic cells compared to a negative control (untreated cells). […]
In general terms: A flow cytometer gives signals particle by particle.

[2] abbreviates: tested concentrations, up to 100 μM.

A value given as a limit tells only on which side of the number the result lay.

For the compound “3-Hydroxy-2-(galactopyranosyl)propyl dodecanoate [Compound 1e]”, the “Amplex Red: highest obtained % of inhibition” value in series [1] (at 50 µM) is less than 20% ^50µM. Moreover, the Cytotoxicity in neutrophils entry with human neutrophils (50 μM) is given as “no cytotoxicity”; in the series with human neutrophils (setting [2]), “non-cytotoxic”.

Take “3-Hydroxy-2-galactopyranosylpropyl dioctyl phosphate [Compound 1b]”: in series [1] (at 25 µM), the “Amplex Red: highest obtained % of inhibition” value was less than 20% ^25µM. Besides, the Cytotoxicity in neutrophils result in the series with human neutrophils (25 μM) is “did not exhibit significant cytotoxicity”. In the series on human neutrophils (50 μM), the Cytotoxicity in neutrophils result is listed as “cytotoxic effects” and the “Induction of late apoptosis in neutrophils” value is “induce late apoptosis”.

`OCC(CO)OC1OC(CO)C(O)C(O)C1O` [Compound 1a, 2-O-D-(galactopyranosyl)glycerol]: the inhibition at 50 µM in series [1] (Homo sapiens, Neutrophil, at 50 µM, read-out: Amplex Red: highest obtained % of inhibition) is less than 20%. For the same compound, in the series on human neutrophils (setting [2]), the Cytotoxicity in neutrophils entry is on record as “no cytotoxic activity”.

Turning to `CCCCCCCCCCCC(=O)OCC(CO)OC1OC(COP(=O)(OCCN)OCCN)C(O)C(O)C1O` (stereo not shown) [Compound 1h, 2-(6-(bis(2-Aminoethoxy))phosphoryl)galactopyranosyl-3-hydroxypropyl dodecanoate], the inhibition at 25 µM in series [1] (Homo sapiens, Neutrophil, at 25 µM, read-out: Amplex Red: highest obtained % of inhibition) was less than 20%. Besides, the Cytotoxicity in neutrophils result in the series with human neutrophils (25 μM) is “did not exhibit significant cytotoxicity”. Further, in the series on human neutrophils (50 μM), the Cytotoxicity in neutrophils entry is recorded as “cytotoxic effects” and the “Induction of late apoptosis in neutrophils” value is reported as “induce late apoptosis”.
